Results taken from ChEMBL document CHEMBL1201862, “PubChem BioAssay data set” (2004).
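Test compounds were applied to cells in 96-well plates for 48 hours at 5 doses. Here, GI50 denotes the concentration required for 50% inhibition of growth.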 Active and inactive are the calls of the source. No stated cut-off is given here; in the data, active = GI50 up to about 1.1 µM and inactive = higher.

Columns and labels:
Assay in all cases: NCI anticancer screen, dose series, 48 h
HOP-62 = system: HOP-62
LOX IMVI = system: LOX IMVI
OVCAR-5 = system: OVCAR-5
SK-OV-3 = system: SK-OV-3
U-251 = system: U-251
HCC 2998 = system: HCC 2998
T47D = system: T47D
K562 = system: K562
HCT-15 = system: HCT-15
NCI/ADR-RES = system: NCI/ADR-RES
SW-620 = system: SW-620
OVCAR-3 = system: OVCAR-3
NCI-H460 = system: NCI-H460
786-0 = system: 786-0
SF-268 = system: SF-268
A549 = system: A549
OVCAR-4 = system: OVCAR-4
NCI-H522 = system: NCI-H522
UACC-257 = system: UACC-257
SR = system: SR

SMILES | GI50 (HOP-62) | GI50 (LOX IMVI) | GI50 (OVCAR-5) | GI50 (SK-OV-3) | GI50 (U-251) | GI50 (HCC 2998) | GI50 (T47D) | GI50 (K562) | GI50 (HCT-15) [µM] | GI50 (NCI/ADR-RES) | GI50 (SW-620) | GI50 (OVCAR-3) | GI50 (NCI-H460) | GI50 (786-0) | GI50 (SF-268) | GI50 (A549) | GI50 (OVCAR-4) | GI50 (NCI-H522) | GI50 (UACC-257) | GI50 (SR)
COc1cc(N(C)C)c(OC)cc1/C=C\c1ccnc2ccccc12 | 4.94 µM (inactive) | 0.746 µM (active) | > 10 µM (inactive) | > 10 µM (inactive) | 5.04 µM (inactive) | 3.62 µM (inactive) | 0.344 µM (active) | 4.01 µM (inactive) | 0.652 | 2.56 µM (inactive) | 4.68 µM (inactive) | 1.72 µM (inactive) | 2.96 µM (inactive) | 4.49 µM (inactive) | 3.63 µM (inactive) | 7.11 µM (inactive) | > 10 µM (inactive) | 4.38 µM (inactive) | 3.73 µM (inactive) | 
C=CCCn1nc(-c2ccccc2)oc1=O | > 100 µM (inactive) | > 100 µM (inactive) | > 100 µM (inactive) | > 100 µM (inactive) | > 100 µM (inactive) | > 100 µM (inactive) |  | > 100 µM (inactive) | > 100 |  | > 100 µM (inactive) | > 100 µM (inactive) | > 100 µM (inactive) | > 100 µM (inactive) | > 100 µM (inactive) | > 100 µM (inactive) | > 100 µM (inactive) | > 100 µM (inactive) | > 100 µM (inactive) | > 100 µM (inactive)
CN=[S+]([O-])(c1ccccc1)c1ccccc1 | > 100 µM (inactive) | > 100 µM (inactive) | > 100 µM (inactive) | > 100 µM (inactive) | > 100 µM (inactive) | > 100 µM (inactive) |  | > 100 µM (inactive) | > 100 |  | > 100 µM (inactive) | > 100 µM (inactive) | > 100 µM (inactive) | > 100 µM (inactive) | > 100 µM (inactive) | > 100 µM (inactive) | > 100 µM (inactive) | > 100 µM (inactive) | > 100 µM (inactive) | > 100 µM (inactive)
NC(=S)N/N=C(\CCC(=O)Nc1ccccc1[N+](=O)[O-])CC(=O)c1ccco1 | > 100 µM (inactive) | > 100 µM (inactive) | > 100 µM (inactive) | > 100 µM (inactive) | > 100 µM (inactive) | > 100 µM (inactive) |  | > 100 µM (inactive) | > 100 |  | > 100 µM (inactive) | > 100 µM (inactive) | > 100 µM (inactive) | > 100 µM (inactive) | > 100 µM (inactive) | > 100 µM (inactive) | > 100 µM (inactive) | > 100 µM (inactive) | > 100 µM (inactive) | > 100 µM (inactive)
CCOC(=O)c1c(NC(=S)Nc2ccc(C)cc2)sc2c1CCN(C)C2 | > 100 µM (inactive) |  | > 100 µM (inactive) |  |  |  | > 100 µM (inactive) | > 100 µM (inactive) | > 100 | > 100 µM (inactive) |  | > 100 µM (inactive) | > 100 µM (inactive) | > 100 µM (inactive) | > 100 µM (inactive) | > 100 µM (inactive) |  |  | > 100 µM (inactive) | 
Cc1cc(Br)c(N2C3=C(CC4=C2CCCC4=O)C(=O)CCC3)c(Br)c1 |  | 23.7 µM (inactive) | > 100 µM (inactive) | > 100 µM (inactive) | 32.9 µM (inactive) | > 100 µM (inactive) |  | 13.2 µM (inactive) | 29.1 | 32.1 µM (inactive) | 31.6 µM (inactive) | 42.9 µM (inactive) | 31.5 µM (inactive) | 96.6 µM (inactive) | 75.5 µM (inactive) | 39.8 µM (inactive) | 93.5 µM (inactive) |  |  | 36.6 µM (inactive)
COc1ccc(NC2=CC(=O)C(=O)c3ccccc32)nn1 |  | 1.66 µM (inactive) | 1.92 µM (inactive) | 2.17 µM (inactive) | 1.52 µM (inactive) | 6.68 µM (inactive) | 3.4 µM (inactive) | 0.224 µM (active) | 0.423 | 0.514 µM (active) | 1.29 µM (inactive) | 1.2 µM (inactive) | 1.54 µM (inactive) | 1.86 µM (inactive) | 1.51 µM (inactive) | 3.1 µM (inactive) | 1.41 µM (inactive) | 0.492 µM (active) | 1.72 µM (inactive) | 
Nc1nc(N)c(/N=N/c2ccc(C(=O)O)c(O)c2)c(N)n1 | > 100 µM (inactive) | > 100 µM (inactive) | > 100 µM (inactive) | > 100 µM (inactive) | > 100 µM (inactive) |  |  | < 0.01 µM (active) | > 100 | > 100 µM (inactive) | > 100 µM (inactive) | 10.4 µM (inactive) | > 100 µM (inactive) | > 100 µM (inactive) | > 100 µM (inactive) | > 100 µM (inactive) | 18.5 µM (inactive) | 26.8 µM (inactive) | > 100 µM (inactive) | > 100 µM (inactive)
N#C/C(=C\c1ccc(O)cc1)C(N)=O | > 100 µM (inactive) | > 100 µM (inactive) | > 100 µM (inactive) | > 100 µM (inactive) | > 100 µM (inactive) | > 100 µM (inactive) |  | > 100 µM (inactive) | > 100 | > 100 µM (inactive) | > 100 µM (inactive) | > 100 µM (inactive) | > 100 µM (inactive) | > 100 µM (inactive) | > 100 µM (inactive) | > 100 µM (inactive) | > 100 µM (inactive) |  | > 100 µM (inactive) | 
O=C1CSC(c2c[nH]c3ccccc23)N1c1ccc(Cl)cc1 (configuration not stated) | > 100 µM (inactive) |  | > 100 µM (inactive) | > 100 µM (inactive) | > 100 µM (inactive) | > 100 µM (inactive) | > 100 µM (inactive) | > 100 µM (inactive) | > 100 | > 100 µM (inactive) | > 100 µM (inactive) | > 100 µM (inactive) | > 100 µM (inactive) | > 100 µM (inactive) | > 100 µM (inactive) | > 100 µM (inactive) | > 100 µM (inactive) |  | > 100 µM (inactive) | 
CN/N=C(/Cc1occc(=O)c1O)C(=O)Nc1ccccc1C | > 100 µM (inactive) | > 100 µM (inactive) | > 100 µM (inactive) | > 100 µM (inactive) | > 100 µM (inactive) | > 100 µM (inactive) |  | > 100 µM (inactive) | > 100 |  | > 100 µM (inactive) | > 100 µM (inactive) | > 100 µM (inactive) | > 100 µM (inactive) | > 100 µM (inactive) | > 100 µM (inactive) | > 100 µM (inactive) | > 100 µM (inactive) | > 100 µM (inactive) | > 100 µM (inactive)
O=c1c2ccccc2nnn1-c1n[nH]c2ccccc12 | > 100 µM (inactive) |  | 13.9 µM (inactive) |  | > 100 µM (inactive) | > 100 µM (inactive) | > 100 µM (inactive) |  | > 100 | > 100 µM (inactive) | > 100 µM (inactive) | > 100 µM (inactive) | > 100 µM (inactive) | > 100 µM (inactive) | > 100 µM (inactive) | > 100 µM (inactive) | > 100 µM (inactive) | > 100 µM (inactive) | > 100 µM (inactive) | 
Brc1ccc(C2(N3CCCCC3)CCCCC2)s1 | 57.5 µM (inactive) | 11.7 µM (inactive) | 67 µM (inactive) | 45.2 µM (inactive) | 33.1 µM (inactive) | 15.7 µM (inactive) | 11.9 µM (inactive) | 21.1 µM (inactive) |  |  | 31.8 µM (inactive) | 38.7 µM (inactive) | 26.7 µM (inactive) | > 100 µM (inactive) | 48.9 µM (inactive) | 39 µM (inactive) | 40.7 µM (inactive) | 27.3 µM (inactive) | 29.8 µM (inactive) | 19.5 µM (inactive)
CCOC1=C/C(=N\Nc2ccc([N+](=O)[O-])cc2)CCC1 | 37.5 µM (inactive) | 8.77 µM (inactive) | 42.4 µM (inactive) | 44.7 µM (inactive) | 19.3 µM (inactive) |  |  | 18.9 µM (inactive) | 7.94 | 30.1 µM (inactive) | 14.8 µM (inactive) | 29.9 µM (inactive) | 25.4 µM (inactive) | 32.4 µM (inactive) | 11.3 µM (inactive) | 71.6 µM (inactive) | 13.8 µM (inactive) | 4.45 µM (inactive) | 63.8 µM (inactive) | 4.53 µM (inactive)
O=C(COc1ccccc1Cl)N1N=C(c2ccccc2)CC1(O)c1ccccc1 (configuration not stated) | 15.1 µM (inactive) | 16.7 µM (inactive) | 19.4 µM (inactive) | 14.9 µM (inactive) | 11.7 µM (inactive) | 15.9 µM (inactive) |  | 14.3 µM (inactive) | 12.9 |  | 26.5 µM (inactive) | 15.9 µM (inactive) | 18 µM (inactive) | 17.3 µM (inactive) | 24.6 µM (inactive) | 16.9 µM (inactive) | 11.3 µM (inactive) | 41.9 µM (inactive) | 20.7 µM (inactive) | 4.61 µM (inactive)
NC1=NC2=c3ccccc3=C(c3cnccn3)C2(c2cnccn2)c2ccccc21 (configuration not stated) | > 100 µM (inactive) | 64.4 µM (inactive) | > 100 µM (inactive) | > 100 µM (inactive) | 98.9 µM (inactive) | > 100 µM (inactive) |  | 66.5 µM (inactive) | > 100 |  | > 100 µM (inactive) | 13.8 µM (inactive) | 58.6 µM (inactive) | > 100 µM (inactive) | 74.1 µM (inactive) | 45.7 µM (inactive) | 42.4 µM (inactive) | 49.5 µM (inactive) | 37.1 µM (inactive) | 39.5 µM (inactive)
